{"source": "patent US12398355B2", "about": "“Micro physiological model for neuronal and muscular diseases and disorders” (Massachusetts Institute of Technology, priority 2019, dated 2025)", "key": {"[1]": {"test_system": "3D motor unit model (MN spheroid and skeletal muscle fiber bundle)"}, "[2]": {"test_system": "in vitro co-culture", "experiment": "Side effects of high drug concentrations in in vitro co-culture", "assay_type": "cell-based", "settings": "in vitro co-culture condition"}, "[3]": {"test_system": "3D motor unit model (hESC-derived MN spheroid and iPSC-derived skeletal muscle fiber bundle with NMJ)", "assay_type": "cell-based, human"}, "[4]": {"test_system": "ALS motor unit (iALS-MN spheroid and iPSC-derived skeletal muscle fiber bundle)", "experiment": "Drug treatment of ALS motor unit model, muscle contraction by optical stimulation", "assay_type": "cell-based, human", "settings": "1-Hz optical stimulation, n=180; untreated ALS ~32.3%", "method": "Epifluorescence and confocal images were acquired using a Zeiss Axiovert 200 microscope and an Olympus FV-1000 confocal microscope, respectively. 3D reconstruction and analysis of confocal images were performed with IMARIS software (Bitplane). Muscle contraction measurement was performed in a stage-top incubator (INUBG2TF-WSKM-SET, Tokai Hit) on Axiovert 200, and image sequences were captured using AxioVision. Automated tracking of the local deformation of the skeletal muscle cells and deflection of the pillars upon light excitation were carried out using ImageJ and Python script with an OpenCV package. Formulas for calculating muscle contraction force from pillar displacements include:\nTo avoid single-cell attachment to the glass bottom, the microfluidic device was incubated with 4% Pluronic F-127 (Sigma) in the incubator for 1 hour, rinsed with distilled water, and dried. […]\nhESC-derived NSCs and iPSC-derived NSCs from a patient with sporadic ALS were infected with an AAV-CAG-ChR2H134R-tdTomato-WPRE plasmid to express a mutated variant of the light-sensitive ion channel, channelrhodopsin-2H134R. […] The cells were cultured for 4 days, expanded for another 3 days, and sorted by fluorescence-activated cell sorting (BD Biosciences, FACSAria II) with strong expression of tdTomato. […]"}}, "data": [{"compound": "N[C@@H](CCC(=O)O)C(=O)O", "note": "[glutamic acid]", "values": [{"measurement": "average contraction force", "setting": "[1]", "result": "~0.5", "unit": "pN"}, {"measurement": "average frequency of muscle contractions", "setting": "[1]", "result": 0.7, "unit": "Hz"}, {"measurement": "morphology after prolonged treatment", "setting": "[1]", "result": "neurite regression and muscle atrophy"}, {"measurement": "muscle contraction after prolonged treatment", "setting": "[1]", "result": "no muscle contraction was observed"}, {"measurement": "muscle contraction force", "setting": "[1]", "result": "relatively decreased"}, {"measurement": "muscle contraction frequency", "setting": "[1]", "result": "dropped"}, {"measurement": "muscle contraction with chemical stimulation", "setting": "[1]", "result": "significant loss of function"}, {"measurement": "muscle contraction with electrical stimulation", "setting": "[1]", "result": "no significant difference"}, {"measurement": "neurotoxic effect / myotoxicity", "setting": "[1]", "result": "mainly caused a neurotoxic effect but no observable myotoxicity"}]}, {"compound": "COc1cc(Nc2c(C#N)cnc3cc(OCCCN4CCN(C)CC4)c(OC)cc23)c(Cl)cc1Cl", "note": "[bosutinib]", "values": [{"measurement": "concentration that can cause side effects", "setting": "[2]", "result": "over 800 uM"}]}, {"compound": "NC1=N[C@H](O)[C@H]2[C@H]3O[C@]4(O)O[C@@H]([C@@H](O)[C@@]2(N1)[C@@H]4O)[C@]3(O)CO", "note": "[TTX, tetrodotoxin]", "values": [{"measurement": "muscle contraction after rinsing away the TTX", "setting": "[3]", "result": "partially recovered"}, {"measurement": "muscle contraction under TTX", "setting": "[3]", "result": "completely prevented muscle contraction"}]}, {"compound": "α-bungarotoxin [αBTX]", "values": [{"measurement": "muscle contraction in the presence of αBTX", "setting": "[3]", "result": "completely inhibited"}]}, {"compound": "CO[C@H]1C[C@@H]2CC[C@@H](C)[C@@](O)(O2)C(=O)C(=O)N2CCCC[C@H]2C(=O)O[C@H]([C@H](C)C[C@@H]2CC[C@@H](O)[C@H](OC)C2)CC(=O)[C@H](C)/C=C(\\C)[C@@H](O)[C@@H](OC)C(=O)[C@H](C)C[C@H](C)/C=C/C=C/C=C/1C", "note": "[rapamycin]", "values": [{"measurement": "concentration that can cause side effects", "setting": "[2]", "result": "over 1 uM"}, {"measurement": "missed muscle contractions after light stimulation", "setting": "[4]", "result": "~16.1", "unit": "%"}]}]}
